Where two headings read alike, the source gives them in different places. Bounds are passed on as bounds.

In the test the target is T1, Human autotaxin enzyme (Homo sapiens, UniProt Q13822).
T1 construct: purchased R&D System
Briefly: Evaluation of autotaxin inhibitor, Method C (Test Example 3): 18:0 Lyso PC, choline assay, Resorufin fluorescence. The format is biochemical. The method, boiled down:
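Choline-coupled fluorescence readout (20 min, resorufin at 531/598 nm) followed a 2 h room-temperature reaction of human autotaxin with 18:0 Lyso PC substrate (added as 200 μM solution) in pH 7.5 Tris buffer containing MgCl2 and Triton X-100. Percent inhibition scaled to no-compound (0%) and no-enzyme (100%) wells and plotted versus concentration.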

Setting [1] is: Assay Method C (Test Example 3), human autotaxin, 18:0 Lyso PC substrate, read-out: Inhibitory Activity (autotaxin enzyme inhibitory activity, IC50 class).
Where [2] appears, read: Assay Method C, human autotaxin, 18:0 Lyso PC substrate, read-out: Inhibitory Activity.
[3] abbreviates: Assay Method: Method C (Test Example 3), read-out: Inhibitory Activity (Enzyme Inhibitory Activity, IC50).

As for `CCCCCn1c(N2CCC[C@H]2C(=O)NCCCN(C)C(=O)OC(C)(C)C)cc(=O)n2cc(-c3ccc(Cl)cc3)nc12` [Compound 655], the IC50 under setting [1] is 0.1 to 1 µM. With `CCCCCn1c(N2C[C@@H](F)C[C@H]2C(=O)NCCC(=O)OCC)cc(=O)n2cc(-c3ccc(Cl)cc3)nc12` [Compound 592], the IC50 under setting [1] fell in the range of 0.01 to 0.1 µM.

On to `CCCCCn1c(OC)cc(=O)n2cc(-c3ccc(Cl)cc3)nc12` [Compound 558], for which the IC50 under setting [1] was in the range of 0.1 to 1 µM.

With `O=C(Cc1cn(CCCC(F)(F)F)c2nc(-c3ccc(Cl)cc3)cn2c1=O)NCc1cc(=O)[nH]o1` [Compound 842], the IC50 under setting [2] was in the range of 0.1 to 1 µM. As for `CCCCCn1c(C2=CCC(C(=O)O)CC2)cc(=O)n2cc(-c3ccc(Cl)cc3)nc12` (stereo not drawn) [Compound 557], the IC50 under setting [1] is 0.01 to 0.1 µM.

Turning to `CCCCCn1c(NC2(C(=O)NCC(=O)O)CC2)cc(=O)n2cc(-c3ccc(Cl)cc3)nc12` [Compound 637], the IC50 under setting [1] was over 1 µM. Consider `CCCCCn1c(N2C[C@@H](O)C[C@H]2C(=O)N[C@H](C(=O)O)C(C)(C)C)cc(=O)n2cc(-c3ccc(Cl)cc3)nc12` [Compound 778], for which the IC50 under setting [1] is under 0.01 µM. As to `CCCCCn1c(N2CCN(C(=O)OC(C)(C)C)C(C(=O)O)C2)cc(=O)n2cc(-c3ccc(Cl)cc3)nc12` (stereo not drawn) [Compound 639], the IC50 under setting [1] was in the range of 0.1 to 1 µM. For `CCCCCn1c(N2CCC[C@H]2C(=O)N(C)CC(=O)N(C)C)cc(=O)n2cc(-c3ccc(Cl)cc3)nc12` [Compound 703], the IC50 under setting [1] was in the range of 0.01 to 0.1 µM.

For `CCCCCn1c(-c2ccc(C(=O)OCC)cc2)cc(=O)n2cc(-c3ccc(Cl)cc3)nc12` [Compound 453], the IC50 under setting [1] fell in the range of 0.1 to 1 µM.

For the molecule `CCCCCn1c(-c2ccc(C(=O)N3CCC4(CN(C(=O)OC(C)(C)C)C4)C3)cc2)cc(=O)n2cc(-c3ccc(Cl)cc3)nc12` [Compound 491], under setting [1], the IC50 lay in the range of 0.1 to 1 µM. In the case of `CCOC(=O)Cc1cn(CCCC(F)(F)F)c2nc(-c3ccc(Cl)cc3)cn2c1=O` [Compound 828], the IC50 under setting [2] was over 1 µM. For the molecule `N#CC(NC(=O)Cc1cn(CCCC(F)(F)F)c2nc(-c3ccc(Cl)cc3)cn2c1=O)C(N)=O` (stereo not drawn) [Compound 859], the IC50 under setting [2] was over 1 µM. For `CCCCCn1c(-c2ccccc2NS(C)(=O)=O)cc(=O)n2cc(-c3ccc(Cl)cc3)nc12` [Compound 440], the IC50 under setting [1] was 0.1 to 1 µM. As to `CCCCCn1c(N2CCC[C@H]2C(=O)NCCCO)cc(=O)n2cc(-c3ccc(Cl)cc3)nc12` [Compound 339], under setting [1], the IC50 was in the range of 0.01 to 0.1 µM. Turning to `CCCCCn1c(N2CCCC(c3ccccc3)C2)cc(=O)n2cc(-c3ccc(Cl)cc3)nc12` (stereo not drawn) [Compound 305], the IC50 under setting [1] was over 1 µM. The same measure, in the same setting: next, `CCCCCn1c(C)cc(=O)n2cc(-c3ccc(C(=O)O)cc3)nc12` [Compound 166]: over 1 µM; `CCCCCn1c(N2CCC[C@@H](C(=O)O)C2)cc(=O)n2cc(-c3ccc(Cl)cc3)nc12` [Compound 608]: 0.01 to 0.1 µM; `CCCCCn1c(N2CCC[C@H]2C(=O)N[C@@H](CC(C)C)C(=O)O)cc(=O)n2cc(-c3ccc(Cl)cc3)nc12` [Compound 733]: under 0.01 µM. Regarding `CCCCC(C(C)=O)n1cc(Cc2cccc(C(=O)O)c2)c(=O)n2cc(-c3ccc(Cl)cc3)nc12` (stereo not drawn) [Compound 825], the IC50 under setting [2] was over 1 µM. On to `Cn1c(N2C[C@H](O)C[C@H]2C(=O)NCC(=O)O)cc(=O)n2cc(-c3ccc(Cl)cc3)nc12` [Compound 773], for which the IC50 under setting [1] was over 1 µM.

With `CCCCCn1c(-c2cnc(CNC(=O)[C@H](O)CO)nc2)cc(=O)n2cc(-c3ccc(Cl)cc3)nc12` [Compound 531], the IC50 under setting [1] is under 0.01 µM.

As for `Cc1cc(=O)n2cc(-c3ccc(Cl)cc3)nc2n1CCCC(C)F` (stereo not drawn) [Compound 49], under setting [3], the IC50 lay within 0.1 to 1 µM. In the case of `CCCCCn1c(-c2ccnc(OC)c2)cc(=O)n2cc(-c3ccc(Cl)cc3)nc12` [Compound 460], the IC50 under setting [1] was 0.1 to 1 µM. In the case of `N#CCCNC(=O)Cc1cn(CCCC(F)(F)F)c2nc(-c3ccc(Cl)cc3)cn2c1=O` [Compound 830], the IC50 under setting [2] fell in the range of 0.1 to 1 µM.

Turning to `CCCCCn1c(OC2CCN(C(=O)CN3CCOCC3)CC2)cc(=O)n2cc(-c3ccc(Cl)cc3)nc12` [Compound 539], under setting [1], the IC50 is 0.01 to 0.1 µM. As for `CCCCCn1c(NCC2(CO)COC2)cc(=O)n2cc(-c3ccc(Cl)cc3)nc12` [Compound 714], the IC50 under setting [1] lay within 0.1 to 1 µM. As to `CCCCCn1c(N2CCC[C@H]2C(=O)N[C@@H](CC(C)C)C(N)=O)cc(=O)n2cc(-c3ccc(Cl)cc3)nc12` [Compound 797], under setting [2], the IC50 was in the range of 0.01 to 0.1 µM.

`O=C(Cc1cn(CCCC(F)(F)F)c2nc(-c3ccc(Cl)cc3)cn2c1=O)N1CCC(O)CC1` [Compound 838]: the IC50 under setting [2] was over 1 µM. On to `CCCCCn1c(O[C@H]2CCN(CC(=O)O)C2)cc(=O)n2cc(-c3ccc(Cl)cc3)nc12` [Compound 575], for which the IC50 under setting [1] lay within 0.01 to 0.1 µM. On to `CCCCCn1c(N2CCCC[C@H]2C(=O)NCC(=O)O)cc(=O)n2cc(-c3ccc(Cl)cc3)nc12` [Compound 633], for which the IC50 under setting [1] was in the range of 0.01 to 0.1 µM.

Consider `CCCCCn1c(-c2ccc3[nH]c(=O)[nH]c3c2)cc(=O)n2cc(-c3ccc(Cl)cc3)nc12` [Compound 448], for which the IC50 under setting [1] is 0.01 to 0.1 µM. `CCCCCn1c(N2CCC[C@H]2C(=O)NCC(=O)N(C)C)cc(=O)n2cc(-c3ccc(Cl)cc3)nc12` [Compound 699]: the IC50 under setting [1] lay in the range of 0.1 to 1 µM.

`CS(=O)(=O)CCNC(=O)Cc1cn(CCCC(F)(F)F)c2nc(-c3ccc(Cl)cc3)cn2c1=O` [Compound 849]: the IC50 under setting [2] was over 1 µM. Turning to `CCCCCn1c(N2C[C@@H](O)C[C@H]2C(=O)NCCC(=O)O)cc(=O)n2cc(-c3ccc(Cl)cc3)nc12` [Compound 582], the IC50 under setting [1] is under 0.01 µM. Take `CCCCCn1c(N2CCC(Cc3ccccc3)C2)cc(=O)n2cc(-c3ccc(Cl)cc3)nc12` (stereo not drawn) [Compound 325]: under setting [1], the IC50 was in the range of 0.1 to 1 µM. Consider `CCCCCn1c(-c2cnc(C(=O)O)nc2)cc(=O)n2cc(-c3ccc(Cl)cc3)nc12` [Compound 533], for which the IC50 under setting [1] was under 0.01 µM. The same measure, in the same setting: next, `CCCCCn1c(-c2ccc(C(=O)NCCCOC)cc2)cc(=O)n2cc(-c3ccc(Cl)cc3)nc12` [Compound 479]: 0.01 to 0.1 µM; `CCCCCn1c(-c2ccc(C(=O)N3CCN(CCOC)CC3)cc2)cc(=O)n2cc(-c3ccc(Cl)cc3)nc12` [Compound 485]: 0.01 to 0.1 µM. As to `C[C@@H]1COC[C@H](C)N1C(=O)Cc1cn(CCCC(F)(F)F)c2nc(-c3ccc(Cl)cc3)cn2c1=O` [Compound 850], under setting [2], the IC50 lay within 0.1 to 1 µM.

Take `CCCCCn1c(-c2ccc(CO)cc2)cc(=O)n2cc(-c3ccc(Cl)cc3)nc12` [Compound 394]: the IC50 under setting [1] lay within 0.01 to 0.1 µM. Take `CCCCCn1c(N2CCC(C3CNC3)C2)cc(=O)n2cc(-c3ccc(Cl)cc3)nc12` (stereo not drawn) [Compound 332]: under setting [1], the IC50 was in the range of 0.1 to 1 µM. On to `CCCC(=O)Cn1c(C)cc(=O)n2cc(-c3ccc(Cl)cc3)nc12` [Compound 41], for which the IC50 under setting [3] was 0.1 to 1 µM. Take `CCCCCn1c(-c2ccc(C(=O)NC3CCS(=O)(=O)CC3)cc2)cc(=O)n2cc(-c3ccc(Cl)cc3)nc12` [Compound 493]: the IC50 under setting [1] lay within 0.01 to 0.1 µM. With `CCCCCn1c(N2CCNC[C@H]2C(=O)O)cc(=O)n2cc(-c3ccc(Cl)cc3)nc12` [Compound 660], the IC50 under setting [1] is over 1 µM. As to `CCCCCn1c(N2CCC[C@H]2C(=O)NC(C)(C)C(C)C(=O)O)cc(=O)n2cc(-c3ccc(Cl)cc3)nc12` (stereo partly drawn) [Compound 676], under setting [1], the IC50 was under 0.01 µM. Turning to `CCCCCn1c(N2CCC[C@H]2C(=O)Nc2ccccc2-c2nn[nH]n2)cc(=O)n2cc(-c3ccc(Cl)cc3)nc12` [Compound 791], the IC50 under setting [2] was 0.1 to 1 µM. Turning to `CCCCCn1c(N2CCN(C(=O)c3ccc(O)cc3)CC2)cc(=O)n2cc(-c3ccc(Cl)cc3)nc12` [Compound 713], under setting [1], the IC50 was 0.01 to 0.1 µM. Regarding `CCCCCn1c(-c2ccc(C(=O)Nc3ccncc3)cc2)cc(=O)n2cc(-c3ccc(Cl)cc3)nc12` [Compound 466], the IC50 under setting [1] was in the range of 0.01 to 0.1 µM.

Take `CCn1c(N2C[C@H](O)C[C@H]2C(=O)N[C@@H](CCc2ccccc2)C(=O)O)cc(=O)n2cc(-c3ccc(Cl)cc3)nc12` [Compound 763]: under setting [1], the IC50 fell in the range of 0.01 to 0.1 µM. Regarding `CCCCCn1c(N2C[C@@H](F)C[C@H]2C(=O)O)cc(=O)n2cc(-c3ccc(Cl)cc3)nc12` [Compound 588], the IC50 under setting [1] was 0.1 to 1 µM. As to `CCCCCn1c(N2CCC[C@H]2C(=O)N2CCC(C(N)=O)C2)cc(=O)n2cc(-c3ccc(Cl)cc3)nc12` (stereo partly drawn) [Compound 701], the IC50 under setting [1] fell in the range of 0.1 to 1 µM. For `CCCCCn1c(-c2ccc(C(=O)NCc3ccc(S(C)(=O)=O)cc3)cc2)cc(=O)n2cc(-c3ccc(Cl)cc3)nc12` [Compound 519], the IC50 under setting [1] lay within 0.01 to 0.1 µM. For the molecule `N#CCCCCn1c(N2CCC(C(=O)O)CC2)cc(=O)n2cc(-c3ccc(Cl)cc3)nc12` [Compound 282], the IC50 under setting [1] lay within 0.01 to 0.1 µM. In the case of `CCCCCn1c(N2CCC[C@H]2C(=O)NCCC(=O)N(C)C)cc(=O)n2cc(-c3ccc(Cl)cc3)nc12` [Compound 344], the IC50 under setting [1] was in the range of 0.1 to 1 µM. With `CCCCCn1c(-c2ccc(CCCC)cc2)cc(=O)n2cc(-c3ccc(Cl)cc3)nc12` [Compound 442], the IC50 under setting [1] is over 1 µM.

`CCCCCn1c(N2CCC[C@H]2C(=O)N[C@@H]2CCNC2=O)cc(=O)n2cc(-c3ccc(Cl)cc3)nc12` [Compound 702]: the IC50 under setting [1] was in the range of 0.01 to 0.1 µM. For the molecule `CCn1c(N2C[C@H](O)C[C@H]2C(=O)NC(C)(C)C(=O)O)cc(=O)n2cc(-c3ccc(Cl)cc3)nc12` [Compound 765], the IC50 under setting [1] fell in the range of 0.1 to 1 µM.

In the case of `CCCCCn1c(-c2ccc(C(=O)N3CCN(C(C)=O)CC3)cc2)cc(=O)n2cc(-c3ccc(Cl)cc3)nc12` [Compound 474], the IC50 under setting [1] is 0.01 to 0.1 µM. Take `CCCCCn1c(NC2(C(=O)O)CC2)cc(=O)n2cc(-c3ccc(Cl)cc3)nc12` [Compound 610]: the IC50 under setting [1] was over 1 µM. The same measure, in the same setting: the figure for `CCCCCn1c(N2CC3CNCC3C2)cc(=O)n2cc(-c3ccc(Cl)cc3)nc12` (stereo not drawn) [Compound 331] is 0.1 to 1 µM; for `CCCCCn1c(-c2ccc(S(C)(=O)=O)cc2)cc(=O)n2cc(-c3ccc(Cl)cc3)nc12` [Compound 433] it is 0.01 to 0.1 µM; for `CCCCCn1c(N2CCC(C(=O)NC)CC2)cc(=O)n2cc(-c3ccc(Cl)cc3)nc12` [Compound 295] it is 0.1 to 1 µM.

Values taken from patent publication US20160002247A1, “8-SUBSTITUTED IMIDAZOPYRIMIDINONE DERIVATIVE HAVING AUTOTAXIN INHIBITORY ACTIVITY” (THE UNIVERSITY OF TOKYO, priority 2013, published 2016).
